Reference: article PMC11198769, “Enhancement of transcription efficiency by TAR-Tat system increases the functional expression of human olfactory receptors” (PLOS ONE, 2024)

Experiments:
Experiment in all cases: Comprehensive analysis (screening) of hORs against n-hexanal
Type in all cases: cell-based
[1] = molecular target: T1, OR52N4 (Homo sapiens, UniProt Q8NGI2); settings: OR52N4, 500 μM n-hexanal, with the TAR-Tat system (hOR/pHEK), n = 1
T1 construct: Lucy tag (N); expressed in transfected cells; host or cells: Flp-In T-REx-293 cells stably expressing RTP1S, Gαolf and Ric8-b
T1 sequence (Q8NGI2 1-321): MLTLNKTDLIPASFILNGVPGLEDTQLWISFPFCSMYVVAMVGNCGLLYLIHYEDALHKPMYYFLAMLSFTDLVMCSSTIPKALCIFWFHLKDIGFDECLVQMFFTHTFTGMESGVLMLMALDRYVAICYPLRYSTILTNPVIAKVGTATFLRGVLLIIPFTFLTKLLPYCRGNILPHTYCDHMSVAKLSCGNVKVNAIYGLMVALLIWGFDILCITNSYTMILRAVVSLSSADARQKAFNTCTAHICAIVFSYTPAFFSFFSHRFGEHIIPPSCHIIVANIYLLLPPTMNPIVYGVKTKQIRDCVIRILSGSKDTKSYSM
Protocol: (§1) Transfection was performed as described in the “hOR assay,” but 12.5 ng of 379 hOR plasmids (hOR/pBApo and hOR/pHEK) was transfected with the 12.5 ng pGlosensor^TM-22F cAMP biosensor plasmid (Promega) in 384 plates per well. After loading the GloSensor cAMP substrate and preincubation, the assay buffer was added (30 μL/well). After 10 min of equilibration, luminescence was measured (L0). Then, 50 mM n-hexanal, which was diluted with 10% DMSO/assay buffer, was added (4.7 μL/well). After 9 min, luminescence was measured (L9min). All the L9min values were subtracted by the L0 value (ΔL).

[2] = molecular target: T2, OR2W1 (Homo sapiens, UniProt Q9Y3N9); settings: OR2W1, 500 μM n-hexanal, n = 1
T2 construct: Lucy tag (N); FLAG (N); Rho tag (N); expressed in transfected cells; host or cells: Flp-In T-REx-293 cells stably expressing RTP1S, Gαolf and Ric8-b
T2 sequence (Q9Y3N9 1-320): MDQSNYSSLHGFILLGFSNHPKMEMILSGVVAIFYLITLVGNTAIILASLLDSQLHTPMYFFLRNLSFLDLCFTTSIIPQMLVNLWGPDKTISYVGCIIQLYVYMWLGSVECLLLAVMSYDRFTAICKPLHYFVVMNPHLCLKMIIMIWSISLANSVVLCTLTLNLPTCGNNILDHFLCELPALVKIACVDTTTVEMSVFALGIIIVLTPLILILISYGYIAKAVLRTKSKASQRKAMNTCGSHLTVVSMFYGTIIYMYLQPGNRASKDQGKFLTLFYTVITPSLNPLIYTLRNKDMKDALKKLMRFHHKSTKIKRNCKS
Protocol: as §1

[3] = molecular target: T3, OR5P3 (Homo sapiens, UniProt Q8WZ94); settings: OR5P3, 500 μM n-hexanal, n = 1
T3 construct: Lucy tag (N); FLAG (N); Rho tag (N); expressed in transfected cells; host or cells: Flp-In T-REx-293 cells stably expressing RTP1S, Gαolf and Ric8-b
T3 sequence (Q8WZ94 1-311): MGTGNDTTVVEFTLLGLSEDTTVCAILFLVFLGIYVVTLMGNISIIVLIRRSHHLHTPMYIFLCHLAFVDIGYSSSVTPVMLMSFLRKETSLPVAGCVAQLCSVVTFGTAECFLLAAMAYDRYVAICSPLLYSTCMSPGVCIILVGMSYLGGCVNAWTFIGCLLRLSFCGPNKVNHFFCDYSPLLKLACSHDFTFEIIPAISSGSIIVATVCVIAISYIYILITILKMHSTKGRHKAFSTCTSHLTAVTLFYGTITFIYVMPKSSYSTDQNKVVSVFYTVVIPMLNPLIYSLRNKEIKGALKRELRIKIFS
Protocol: as §1

[4] = molecular target: T4, OR2B3 (Homo sapiens, UniProt O76000); settings: OR2B3, 500 μM n-hexanal, with the TAR-Tat system (hOR/pHEK), n = 1
T4 construct: Lucy tag (N); FLAG (N); Rho tag (N); expressed in transfected cells; host or cells: Flp-In T-REx-293 cells stably expressing RTP1S, Gαolf and Ric8-b
T4 sequence (O76000 1-313): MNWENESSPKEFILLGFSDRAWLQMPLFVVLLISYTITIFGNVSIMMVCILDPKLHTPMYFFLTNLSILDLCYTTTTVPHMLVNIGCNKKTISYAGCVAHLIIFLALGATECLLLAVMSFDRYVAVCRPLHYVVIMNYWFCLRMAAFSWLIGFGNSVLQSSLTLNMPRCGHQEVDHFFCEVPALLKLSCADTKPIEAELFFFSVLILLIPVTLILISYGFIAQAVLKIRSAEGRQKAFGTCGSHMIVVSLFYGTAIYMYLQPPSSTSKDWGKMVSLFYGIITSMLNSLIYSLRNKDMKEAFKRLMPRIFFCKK
Protocol: as §1

[5] = molecular target: T5, OR10C1 (Homo sapiens, UniProt Q96KK4); settings: OR10C1, 500 μM n-hexanal, with the TAR-Tat system (hOR/pHEK), n = 1
T5 construct: Lucy tag (N); expressed in transfected cells; host or cells: Flp-In T-REx-293 cells stably expressing RTP1S, Gαolf and Ric8-b
T5 sequence (Q96KK4 1-312): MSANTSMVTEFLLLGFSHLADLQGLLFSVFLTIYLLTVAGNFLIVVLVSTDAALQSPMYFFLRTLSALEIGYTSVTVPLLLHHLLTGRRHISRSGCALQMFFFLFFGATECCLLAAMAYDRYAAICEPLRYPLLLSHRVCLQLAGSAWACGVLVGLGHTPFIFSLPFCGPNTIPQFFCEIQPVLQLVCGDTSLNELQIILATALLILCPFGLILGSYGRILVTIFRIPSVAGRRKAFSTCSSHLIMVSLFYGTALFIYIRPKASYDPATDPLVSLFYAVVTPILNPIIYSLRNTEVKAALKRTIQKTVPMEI
Protocol: as §1

[6] = molecular target: T6, OR8B4 (Homo sapiens, UniProt Q96RC9); settings: OR8B4, 500 μM n-hexanal, with the TAR-Tat system (hOR/pHEK), n = 1
T6 construct: Lucy tag (N); FLAG (N); Rho tag (N); expressed in transfected cells; host or cells: Flp-In T-REx-293 cells stably expressing RTP1S, Gαolf and Ric8-b
T6 sequence (Q96RC9 1-309): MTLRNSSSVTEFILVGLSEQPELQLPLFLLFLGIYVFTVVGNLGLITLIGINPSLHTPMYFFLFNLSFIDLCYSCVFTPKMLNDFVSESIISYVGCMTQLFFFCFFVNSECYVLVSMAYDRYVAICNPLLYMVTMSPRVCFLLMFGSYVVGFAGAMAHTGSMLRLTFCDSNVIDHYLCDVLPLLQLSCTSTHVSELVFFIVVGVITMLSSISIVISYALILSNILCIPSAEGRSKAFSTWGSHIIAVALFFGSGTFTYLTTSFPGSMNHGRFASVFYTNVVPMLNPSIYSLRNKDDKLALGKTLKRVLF
Protocol: as §1

[7] = with the TAR-Tat system (hOR/pHEK)
[8] = without the TAR-Tat system (control plasmid)

Structure (SMILES): CCCCCC=O [n-hexanal]
- response value (ΔL) [1]: > 500
- response value (ΔL) [2, 7]: 9310
- response value (ΔL) [2, 8]: 3463
- response value (ΔL) [3, 7]: 2931
- response value (ΔL) [3, 8]: 740
- response value (ΔL) [4]: > 500
- response value (ΔL) [5]: > 500
- response value (ΔL) [6]: > 500
